Targets include D(2) dopamine receptor (Rattus norvegicus, UniProt P61169); D(1A) dopamine receptor (Rattus norvegicus, UniProt P18901); Histamine H1 receptor (Rattus norvegicus, UniProt P31390).
Experiment [1] addresses T1, Alpha-2C adrenergic receptor (Rattus norvegicus, UniProt P22086).
T1 sequence (P22086 whole entry): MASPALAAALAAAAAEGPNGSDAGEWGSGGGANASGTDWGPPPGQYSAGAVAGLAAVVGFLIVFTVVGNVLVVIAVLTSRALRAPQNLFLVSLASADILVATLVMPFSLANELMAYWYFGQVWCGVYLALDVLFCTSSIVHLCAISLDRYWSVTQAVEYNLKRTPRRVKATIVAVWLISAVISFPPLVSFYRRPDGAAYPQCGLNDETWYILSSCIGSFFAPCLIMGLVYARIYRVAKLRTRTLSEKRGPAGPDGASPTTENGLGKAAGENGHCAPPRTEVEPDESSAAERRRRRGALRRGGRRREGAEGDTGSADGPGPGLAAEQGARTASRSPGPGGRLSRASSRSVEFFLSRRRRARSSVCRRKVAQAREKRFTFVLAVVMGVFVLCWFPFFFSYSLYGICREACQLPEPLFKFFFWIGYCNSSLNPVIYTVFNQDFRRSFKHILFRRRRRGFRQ

Experiment [2] concerns the target T2, 5-hydroxytryptamine receptor 1A (Rattus norvegicus, UniProt P19327).
T2 sequence (P19327 whole entry): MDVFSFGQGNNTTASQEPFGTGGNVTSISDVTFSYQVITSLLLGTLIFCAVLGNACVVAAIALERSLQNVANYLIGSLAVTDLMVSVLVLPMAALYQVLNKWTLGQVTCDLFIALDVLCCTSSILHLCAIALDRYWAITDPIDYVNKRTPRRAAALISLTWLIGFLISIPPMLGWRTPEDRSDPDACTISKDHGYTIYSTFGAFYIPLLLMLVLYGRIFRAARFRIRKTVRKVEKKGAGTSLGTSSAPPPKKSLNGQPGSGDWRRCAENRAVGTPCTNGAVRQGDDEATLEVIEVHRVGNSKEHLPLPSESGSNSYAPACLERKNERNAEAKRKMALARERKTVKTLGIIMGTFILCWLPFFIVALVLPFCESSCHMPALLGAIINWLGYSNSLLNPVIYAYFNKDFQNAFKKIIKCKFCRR

Experiment [3] concerns the target Beta-2 adrenergic receptor (Rattus norvegicus, UniProt P10608).
The target of experiment [4] is T3, Muscarinic acetylcholine receptor M2 (Rattus norvegicus, UniProt P10980).
T3 sequence (P10980 whole entry): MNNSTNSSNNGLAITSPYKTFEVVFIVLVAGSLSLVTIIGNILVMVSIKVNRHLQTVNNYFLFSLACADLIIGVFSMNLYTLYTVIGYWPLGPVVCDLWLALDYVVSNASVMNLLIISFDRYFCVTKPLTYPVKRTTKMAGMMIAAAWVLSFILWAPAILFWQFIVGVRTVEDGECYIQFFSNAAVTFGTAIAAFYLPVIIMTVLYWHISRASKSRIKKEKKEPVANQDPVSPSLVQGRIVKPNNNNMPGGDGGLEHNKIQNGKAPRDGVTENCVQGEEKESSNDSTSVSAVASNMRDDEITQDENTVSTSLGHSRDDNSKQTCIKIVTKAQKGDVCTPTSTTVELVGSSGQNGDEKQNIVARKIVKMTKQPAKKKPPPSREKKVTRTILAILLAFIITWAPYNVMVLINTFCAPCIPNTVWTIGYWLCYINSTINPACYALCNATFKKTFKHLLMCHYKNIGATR

Experiment [5] has as its target T4, 5-hydroxytryptamine receptor 2C (Rattus norvegicus, UniProt P08909).
T4 sequence (P08909 whole entry): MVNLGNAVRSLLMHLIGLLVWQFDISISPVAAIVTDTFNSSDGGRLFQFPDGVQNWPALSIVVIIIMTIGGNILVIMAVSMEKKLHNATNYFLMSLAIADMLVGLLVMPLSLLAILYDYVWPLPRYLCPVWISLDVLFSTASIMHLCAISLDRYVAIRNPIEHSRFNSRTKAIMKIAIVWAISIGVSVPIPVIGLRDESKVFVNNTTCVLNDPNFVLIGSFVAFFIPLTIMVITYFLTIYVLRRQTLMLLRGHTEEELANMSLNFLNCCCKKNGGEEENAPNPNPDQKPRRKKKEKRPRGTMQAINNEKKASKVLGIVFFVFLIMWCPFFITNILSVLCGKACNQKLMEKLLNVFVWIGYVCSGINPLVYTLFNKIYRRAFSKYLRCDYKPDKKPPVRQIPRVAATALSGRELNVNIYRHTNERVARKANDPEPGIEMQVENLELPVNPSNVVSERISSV

The target in experiment [6] is T5, Alpha-1A adrenergic receptor (Rattus norvegicus, UniProt P43140).
T5 sequence (P43140 whole entry): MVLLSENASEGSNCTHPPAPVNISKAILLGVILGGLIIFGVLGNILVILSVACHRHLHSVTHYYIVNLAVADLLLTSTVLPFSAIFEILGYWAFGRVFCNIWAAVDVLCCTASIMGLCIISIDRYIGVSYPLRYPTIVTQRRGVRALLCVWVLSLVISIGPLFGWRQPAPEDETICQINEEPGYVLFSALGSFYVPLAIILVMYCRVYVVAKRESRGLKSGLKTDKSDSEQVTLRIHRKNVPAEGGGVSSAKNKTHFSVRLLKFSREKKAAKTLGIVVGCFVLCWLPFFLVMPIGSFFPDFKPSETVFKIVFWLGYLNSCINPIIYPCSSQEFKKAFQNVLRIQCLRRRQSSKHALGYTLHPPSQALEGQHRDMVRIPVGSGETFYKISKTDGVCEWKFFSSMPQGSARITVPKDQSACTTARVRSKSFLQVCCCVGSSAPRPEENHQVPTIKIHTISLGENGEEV

Experiment [7] addresses Norepinephrine transporter (Rattus norvegicus, UniProt Q9JIA2).
In experiment [8] the target is Sodium-dependent dopamine transporter (Rattus norvegicus, UniProt P23977).
Sequence of Sodium-dependent dopamine transporter (P23977 whole entry): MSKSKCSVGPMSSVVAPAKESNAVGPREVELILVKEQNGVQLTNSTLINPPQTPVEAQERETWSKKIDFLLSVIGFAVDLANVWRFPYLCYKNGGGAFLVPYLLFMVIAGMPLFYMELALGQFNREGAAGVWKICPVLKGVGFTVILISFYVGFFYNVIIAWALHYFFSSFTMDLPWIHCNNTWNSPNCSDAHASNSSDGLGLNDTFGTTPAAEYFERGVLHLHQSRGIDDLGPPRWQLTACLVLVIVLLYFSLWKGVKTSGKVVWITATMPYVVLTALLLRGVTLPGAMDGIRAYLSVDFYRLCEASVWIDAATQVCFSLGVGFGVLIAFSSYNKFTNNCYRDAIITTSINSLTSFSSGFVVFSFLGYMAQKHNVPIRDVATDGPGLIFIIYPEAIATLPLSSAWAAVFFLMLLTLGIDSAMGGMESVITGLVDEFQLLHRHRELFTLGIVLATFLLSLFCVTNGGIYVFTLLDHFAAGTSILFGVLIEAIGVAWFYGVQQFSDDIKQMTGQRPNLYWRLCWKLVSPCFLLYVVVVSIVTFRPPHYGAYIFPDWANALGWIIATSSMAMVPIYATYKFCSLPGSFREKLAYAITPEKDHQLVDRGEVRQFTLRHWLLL
For experiment [9], the target named is 5-hydroxytryptamine receptor 2A (Rattus norvegicus, UniProt P14842).
Sequence of 5-hydroxytryptamine receptor 2A (P14842 whole entry): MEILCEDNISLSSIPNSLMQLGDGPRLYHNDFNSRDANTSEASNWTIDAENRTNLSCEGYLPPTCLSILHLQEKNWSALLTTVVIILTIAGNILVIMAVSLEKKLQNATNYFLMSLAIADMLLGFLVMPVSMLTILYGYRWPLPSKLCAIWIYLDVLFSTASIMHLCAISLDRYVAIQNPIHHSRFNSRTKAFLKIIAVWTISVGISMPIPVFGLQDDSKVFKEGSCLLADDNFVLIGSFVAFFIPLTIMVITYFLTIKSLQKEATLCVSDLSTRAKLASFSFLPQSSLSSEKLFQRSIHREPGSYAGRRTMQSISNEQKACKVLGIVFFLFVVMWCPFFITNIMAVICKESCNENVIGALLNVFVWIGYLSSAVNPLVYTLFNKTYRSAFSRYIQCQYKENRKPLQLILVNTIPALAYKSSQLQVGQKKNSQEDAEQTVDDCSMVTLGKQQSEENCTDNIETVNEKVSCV
For experiment [10], the target named is Sodium-dependent serotonin transporter (Rattus norvegicus, UniProt P31652).
Sequence of Sodium-dependent serotonin transporter (P31652 whole entry): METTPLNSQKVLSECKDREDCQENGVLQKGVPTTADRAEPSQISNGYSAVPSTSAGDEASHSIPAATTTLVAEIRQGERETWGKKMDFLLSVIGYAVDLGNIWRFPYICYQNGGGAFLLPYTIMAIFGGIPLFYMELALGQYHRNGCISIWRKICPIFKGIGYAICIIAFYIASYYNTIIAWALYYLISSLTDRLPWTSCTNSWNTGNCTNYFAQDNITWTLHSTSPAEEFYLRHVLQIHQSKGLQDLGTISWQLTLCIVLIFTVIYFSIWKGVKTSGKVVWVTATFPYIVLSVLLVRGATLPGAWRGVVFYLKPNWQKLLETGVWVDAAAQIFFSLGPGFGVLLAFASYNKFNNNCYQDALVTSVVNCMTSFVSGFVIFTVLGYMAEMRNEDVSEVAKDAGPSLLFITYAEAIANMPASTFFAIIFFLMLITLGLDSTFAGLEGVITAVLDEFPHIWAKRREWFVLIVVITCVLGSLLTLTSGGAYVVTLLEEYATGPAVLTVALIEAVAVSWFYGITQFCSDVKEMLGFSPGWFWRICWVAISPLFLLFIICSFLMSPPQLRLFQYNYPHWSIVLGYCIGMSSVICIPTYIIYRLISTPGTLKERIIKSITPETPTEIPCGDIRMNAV

Structures are written as SMILES. Counter-ions that a name gives are not always drawn. A value given as a limit tells only on which side of the number the result lay.

Sequence of Beta-2 adrenergic receptor (P10608 whole entry): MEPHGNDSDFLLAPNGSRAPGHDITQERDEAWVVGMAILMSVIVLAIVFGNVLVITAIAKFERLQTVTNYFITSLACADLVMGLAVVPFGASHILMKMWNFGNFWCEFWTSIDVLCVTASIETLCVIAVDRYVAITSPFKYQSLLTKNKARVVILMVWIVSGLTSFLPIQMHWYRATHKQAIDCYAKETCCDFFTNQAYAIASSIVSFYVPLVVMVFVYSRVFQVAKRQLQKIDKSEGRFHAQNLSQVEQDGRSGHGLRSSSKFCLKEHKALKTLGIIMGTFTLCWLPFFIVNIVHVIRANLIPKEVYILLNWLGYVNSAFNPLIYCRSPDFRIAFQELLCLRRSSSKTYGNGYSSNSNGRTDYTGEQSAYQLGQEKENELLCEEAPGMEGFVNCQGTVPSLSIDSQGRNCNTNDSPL
Sequence of Histamine H1 receptor (P31390 whole entry): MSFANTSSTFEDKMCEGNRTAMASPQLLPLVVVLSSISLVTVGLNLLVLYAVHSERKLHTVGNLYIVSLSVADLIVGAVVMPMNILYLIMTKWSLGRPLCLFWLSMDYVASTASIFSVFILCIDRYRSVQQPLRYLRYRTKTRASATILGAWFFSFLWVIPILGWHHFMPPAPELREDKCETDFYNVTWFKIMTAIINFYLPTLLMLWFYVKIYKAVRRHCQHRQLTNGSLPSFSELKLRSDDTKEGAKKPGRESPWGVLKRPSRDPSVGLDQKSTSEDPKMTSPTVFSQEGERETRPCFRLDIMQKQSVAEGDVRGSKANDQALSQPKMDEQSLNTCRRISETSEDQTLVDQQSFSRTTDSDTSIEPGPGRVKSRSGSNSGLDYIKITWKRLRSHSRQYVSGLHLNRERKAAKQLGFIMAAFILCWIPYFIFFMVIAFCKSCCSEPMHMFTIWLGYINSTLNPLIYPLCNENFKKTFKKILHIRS
Sequence of D(1A) dopamine receptor (P18901 whole entry): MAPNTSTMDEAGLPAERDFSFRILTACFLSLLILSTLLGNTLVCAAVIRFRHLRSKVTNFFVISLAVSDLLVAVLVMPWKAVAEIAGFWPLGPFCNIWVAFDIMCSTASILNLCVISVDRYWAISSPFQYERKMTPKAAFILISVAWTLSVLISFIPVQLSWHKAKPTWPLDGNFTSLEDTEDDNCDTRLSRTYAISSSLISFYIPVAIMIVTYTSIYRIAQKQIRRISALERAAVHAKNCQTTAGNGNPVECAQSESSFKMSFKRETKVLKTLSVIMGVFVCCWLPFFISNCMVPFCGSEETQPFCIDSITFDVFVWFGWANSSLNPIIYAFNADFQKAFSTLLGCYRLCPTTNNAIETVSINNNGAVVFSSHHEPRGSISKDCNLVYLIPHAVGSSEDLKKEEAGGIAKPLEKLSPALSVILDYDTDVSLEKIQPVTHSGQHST
Sequence of D(2) dopamine receptor (P61169 whole entry): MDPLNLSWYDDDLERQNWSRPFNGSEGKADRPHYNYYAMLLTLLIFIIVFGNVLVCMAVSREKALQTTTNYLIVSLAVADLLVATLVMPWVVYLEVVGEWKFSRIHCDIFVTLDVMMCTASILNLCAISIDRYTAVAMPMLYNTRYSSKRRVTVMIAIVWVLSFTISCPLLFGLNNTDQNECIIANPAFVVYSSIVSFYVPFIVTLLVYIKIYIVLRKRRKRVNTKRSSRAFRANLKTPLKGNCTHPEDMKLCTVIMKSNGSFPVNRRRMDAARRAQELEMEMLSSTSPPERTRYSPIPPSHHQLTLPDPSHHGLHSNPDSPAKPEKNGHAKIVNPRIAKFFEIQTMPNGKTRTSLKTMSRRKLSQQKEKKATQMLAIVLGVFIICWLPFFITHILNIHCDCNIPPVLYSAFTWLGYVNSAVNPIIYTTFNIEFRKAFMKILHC

The Ki is the equilibrium dissociation constant of an inhibitor or competing ligand from its target. Lower therefore signals higher affinity. With `CN(C)CCCC1(c2ccc(F)cc2)OCc2cc(C#N)ccc21` (stereo unspecified) [CITALOPRAM HYDROBROMIDE], the inhibitory constant (Ki) in [1] was above 10000 nM; in experiment [2], above 10000 nM; on D(2) dopamine receptor, above 10000 nM; in experiment [3], above 10000 nM; in experiment [4], 5600 nM; at D(1A) dopamine receptor, above 10000 nM. In addition, the Ki in experiment [5] is 630 nM.

As to `CCc1nn(CCCN2CCN(c3cccc(Cl)c3)CC2)c(=O)n1CCOc1ccccc1` [2-{3-[4-(3-chlorophenyl)piperazin-1-yl]propyl}-5-ethyl-4-(2-phenoxyethyl)-2,4-dihydro-3H-1,2,4-triazol-3-one], the Ki in experiment [1] is 1200 nM; in [2], 1000 nM; in experiment [6], 42 nM; in experiment [3], above 10000 nM; in [7], 110 nM; in experiment [4], above 10000 nM. Moreover, the Ki in experiment [8] turned out to be 470 nM; on D(1A) dopamine receptor it was 1500 nM; at Histamine H1 receptor, 370 nM.

As for `CNCC[C@@H](Oc1ccc(C(F)(F)F)cc1)c1ccccc1` [Prozac], the Ki on D(2) dopamine receptor was above 10000 nM; in [3] it was above 10000 nM; on D(1A) dopamine receptor, above 10000 nM; on Histamine H1 receptor, 3200 nM.

Turning to `CN(CCCN1c2ccccc2CCc2ccccc21)CC(=O)c1ccc(Cl)cc1` [CAS_23047-25-8], the Ki was 2100 nM in experiment [1]; 1200 nM in [9]; above 10000 nM in experiment [2]; 880 nM in experiment [10]; 6700 nM at D(2) dopamine receptor; 620 nM in experiment [6]. Also, the Ki in experiment [3] is above 10000 nM; in experiment [7], 2.7 nM; in [4], 300 nM; in experiment [8] it was 3300 nM; on D(1A) dopamine receptor, 500 nM; at Histamine H1 receptor it was 1000 nM.

For the compound `COc1ccc(C(CN(C)C)C2(O)CCCCC2)cc1` (stereo unspecified) [NSC_62923], the Ki (in experiment [1]; in experiment [2]; on D(2) dopamine receptor; in experiment [4]; at D(1A) dopamine receptor; at Histamine H1 receptor) was above 10000 nM throughout. For the same compound, the Ki in experiment [5] is above 10000 nM.

As to `CN(C)CCC=C1c2ccccc2CCc2ccccc21`, the Ki in experiment [1] was 340 nM; in [9], 11 nM; in experiment [2] it was above 10000 nM; on D(2) dopamine receptor, 850 nM; in [6], 69 nM; in [3], above 10000 nM. Besides, the Ki was determined as 24 nM in experiment [7]; 8.9 nM in experiment [4]; 5300 nM in [8]; 81 nM on D(1A) dopamine receptor; 8.3 nM on Histamine H1 receptor; 8 nM in experiment [5].

As for `CC(NC(C)(C)C)C(=O)c1cccc(Cl)c1` (stereo unspecified) [BUPROPION HYDROCHLORIDE], the inhibition constant Ki is above 10000 nM in experiment [1]; above 10000 nM at D(2) dopamine receptor; above 10000 nM in experiment [6]; above 10000 nM in [3]; 1400 nM in experiment [7]; above 10000 nM in experiment [4]. The Ki was 570 nM in experiment [8], above 10000 nM on D(1A) dopamine receptor and above 10000 nM in experiment [5].

`Fc1ccc([C@@H]2CCNC[C@H]2COc2ccc3c(c2)OCO3)cc1` [PAROXETINE]: the Ki in experiment [1] is 8900 nM; in experiment [2] it was above 10000 nM; on D(2) dopamine receptor, above 10000 nM; in [6] it was above 10000 nM; in experiment [3], above 10000 nM; in [4] it was 210 nM. The Ki (on D(1A) dopamine receptor; on Histamine H1 receptor; in [5]) was above 10000 nM throughout.

Consider `CN(C)CCC=C1c2ccccc2CSc2ccccc21` [CAS_897-15-4], for which the Ki in experiment [1] is 12 nM; in experiment [9], 152 nM; in [2] it was 4000 nM; in experiment [6], 419 nM; in [7] it was 70 nM; in experiment [4] it was 26 nM. The Ki was 5180 nM in experiment [8] and 4 nM on Histamine H1 receptor.

On to `COCCCC/C(=N\OCCN)c1ccc(C(F)(F)F)cc1` [(1E)-5-methoxy-1-[4-(trifluoromethyl)phenyl]pentan-1-one O-(2-aminoethyl)oxime], for which the Ki was 1900 nM in [1]; above 10000 nM in experiment [9]; above 10000 nM in [2]; above 10000 nM at D(2) dopamine receptor; 4800 nM in experiment [6]; above 10000 nM in experiment [3]. The Ki in experiment [7] is 620 nM; in experiment [4], above 10000 nM; in experiment [8], above 10000 nM; on D(1A) dopamine receptor, above 10000 nM; at Histamine H1 receptor it was above 10000 nM; in experiment [5], 6700 nM.

With `CN[C@@H]1CC[C@@H](c2ccc(Cl)c(Cl)c2)c2ccccc21` [[4-(3,4-Dichloro-phenyl)-1,2,3,4-tetrahydro-naphthalen-1-yl]-methyl-amine], the inhibition constant (Ki) in experiment [2] is above 10000 nM; on D(2) dopamine receptor it was above 10000 nM; in [6], 2800 nM; in [3], above 10000 nM; in experiment [4] it was 1100 nM; on D(1A) dopamine receptor, 6300 nM. On Histamine H1 receptor, this compound yielded a Ki above 10000 nM.

(Values after BindingDB's records for doi:10.1023/a:1006986824213 (1999).)
